Reference: patent US20050255537A1, “Method for monitoring treatment with a parathyroid hormone” (priority 1999, published 2005)
Several values for one entry are separate records, joined by “and”; a condition that tells them apart may be missing. Equal values may be shown once.

Key:
[1] = system: BSAP and PICP serum levels, NTX urine levels; test: Example 1 clinical trial of rhPTH(1-34) in postmenopausal women: markers of bone formation and resorption; format: in vivo, human
Protocol: • Number of Subjects: • rhPTH(1-34): 1093 enrolled, 848 finished. • Placebo: 544 enrolled, 447 finished. • Diagnosis and Inclusion Criteria: Women ages 30 to 85 years, postmenopausal for a minimum of 5 years, with a minimum of one moderate or two mild atraumatic vertebral fractures. • Dosage and Administration: • Test Product (blinded) • rhPTH(1-34): 20 μg/day, given subcutaneously • rhPTH(1-34): 40 μg/day, given subcutaneously • Reference Therapy (blinded) • Placebo study material for injection • Duration of Treatment: • rhPTH(1-34): 17-23 months (excluding 6-month run-in phase) • Placebo: 17-23 months (excluding 6-month run-in phase) • Criteria for Evaluation: Spine x-ray; serum biological markers (calcium, bone-specific alkaline phosphatase, procollagen I carboxy-terminal propeptide); urine markers (calcium, N-telopeptide, free deoxypyridinoline); 1,25-dihydroxyvitamin D; bone mineral density: spine, hip, wrist, and total body: height; population pharmacokinetics; bone biopsy (selected study sites).
Measures of BSAP, PICP, and NTX levels were determined for each patient through the course of therapy, for example, at 0, 1, 3, 6, 12, 21 and 24 months after the initiation of administration of parathyroid hormone. Parathyroid hormone treatment was discontinued after 17-23 months. The percent change (relative to the initial “0” month levels) for each marker was determined for each patient and is reported in the Figures. The overall changes observed in the 20 μg/day PTH-treated patient population, the 40 μg/day PTH-treated treated patient population, and the placebo patient population were determined by methods known to those of skill in the arts.

[2] = system: men with primary osteoporosis; test: Example 5 study GHAJ: incident nonvertebral fractures; format: in vivo, human
Protocol: (§1) Four hundred thirty seven men with primary osteoporosis were enrolled in the study. Approximately one-third of die patients were randomly assigned to LY333334 40 μg/day plus calcium and vitamin D, one-third of the patients were randomly assigned to LY333334 20 μg/day plus calcium and vitamin D, and one-third of the patients were randomly assigned to placebo plus calcium and vitamin D. • Number of Subjects: • PTH: Male 437, Female 0, Total 437; • LY333334 20 μg: Male: Total 151. • LY333334 40 μg: Male: Total 139. • Placebo: Male: Total 147. • Diagnosis and Inclusion Criteria: The study patients were men with primary osteoporosis, aged 30 to 85 years, inclusive. L-2 to L-4 vertebrae must have been intact without artifacts, crush fracture or other abnormalities which would have interfered with the analysis of the posterior-anterior lumbar spine bone mineral density (BMD) measurement which must have been at least 2.0 SD below that of young, healthy men. […] Patient Demographic and Other Baseline Characteristics
Although the incidence of nonvertebral fractures was measured, it was not a specified efficacy endpoint. The number of patients reporting at least one incident nonvertebral fracture is tabulated by fracture location in Table 10 (below). […] At individual body sites, the number of fractures was insufficient for a meaningful statistical analysis.

[3] = system: serum PICP, serum BSAP, urinary NTX, urinary free deoxypyridinoline; test: Example 5 study GHAJ: biochemical markers of bone formation and resorption in men; format: in vivo, human; details: for serum PICP peak concentration above baseline: Month 1
Protocol: as §1

[4] = Post-hoc estimates of AUC from the pharmacokinetic model (systemic exposure); details: human, in vivo, subcutaneous
From the text: In order to explore the relationship between concentration and the effect on spine BMD, a pharmacokinetic/pharmacodynamic model was developed. This relationship was best described by a sigmoid Emax model with AUC50 estimated at 170 pg·hr/mL.

[5] = system: men with primary osteoporosis; test: Example 5 study GHAJ: bone densitometry (BMD, BMC) in men; format: in vivo, human; details: for Distal Radius (Forearm) BMD, mean change from baseline to endpoint / Distal Radius (Forearm) BMD, mean percent change from baseline to endpoint / Ultradistal Radius (Forearm) BMD, mean change from baseline to endpoint / Ultradistal Radius (Forearm) BMD, mean percent change from baseline to endpoint / Whole body BMD, mean change from baseline to endpoint: subset of patients; for increase in lumbar spine BMD compared to placebo at endpoint: median follow-up approximately 11 months
Protocol: as §1

[6] = about 5-6 weeks following termination, about 21-24 months after initiation

- AUC ([4]; 20 ug): 0.365 ng·h/mL
- AUC ([4]; 40 ug): 0.576 ng·h/mL
SMILES: CC[C@H](C)[C@H](NC(=O)[C@H](CCC(=O)O)NC(=O)[C@H](CO)NC(=O)[C@@H](NC(=O)[C@@H](N)CO)C(C)C)C(=O)N[C@@H](CCC(N)=O)C(=O)N[C@@H](CC(C)C)C(=O)N[C@@H](CCSC)C(=O)N[C@@H](Cc1cnc[nH]1)C(=O)N[C@@H](CC(N)=O)C(=O)N[C@@H](CC(C)C)C(=O)NCC(=O)N[C@@H](CCCCN)C(=O)N[C@@H](Cc1cnc[nH]1)C(=O)N[C@@H](CC(C)C)C(=O)N[C@@H](CC(N)=O)C(=O)N[C@@H](CO)C(=O)N[C@@H](CCSC)C(=O)N[C@@H](CCC(=O)O)C(=O)N[C@@H](CCCN=C(N)N)C(=O)N[C@H](C(=O)N[C@@H](CCC(=O)O)C(=O)N[C@@H](Cc1c[nH]c2ccccc12)C(=O)N[C@@H](CC(C)C)C(=O)N[C@@H](CCCN=C(N)N)C(=O)N[C@@H](CCCCN)C(=O)N[C@@H](CCCCN)C(=O)N[C@@H](CC(C)C)C(=O)N[C@@H](CCC(N)=O)C(=O)N[C@@H](CC(=O)O)C(=O)N[C@H](C(=O)N[C@@H](Cc1cnc[nH]1)C(=O)N[C@@H](CC(N)=O)C(=O)N[C@@H](Cc1ccccc1)C(=O)O)C(C)C)C(C)C [LY333334]
- percent change in PICP serum levels during treatment ([1]; 20 μg/day and 40 μg/day PTH, FIG. 2): reached a peak within about one or two months
- percent change in NTX urine levels during treatment ([1]; 20 μg/day and 40 μg/day PTH, FIG. 3): increased steadily until about 12 months after treatment initiation
- BSAP level after termination of PTH treatment [1, 6]: returned to a level at or slightly higher than placebo control levels
- PICP level after termination of PTH treatment [1, 6]: returned to a level about the same as placebo controls
- percent change in NTX levels after termination of PTH treatment ([1]; about 21-24 months after initiation): declined and returned to levels similar to those observed in the placebo treated group
- patients with at least one incident nonvertebral fracture: Ankle ([2]; 20 μg/day): 1
- patients with at least one incident nonvertebral fracture: Other ([2]; 20 μg/day): 0
- patients with at least one incident nonvertebral fracture: Radius ([2]; 20 μg/day): 1
- patients with at least one incident nonvertebral fracture: Ribs ([2]; 20 μg/day): 1
- patients with at least one incident nonvertebral fracture: Total Patients ([2]; 20 μg/day): 2
- patients with at least one incident nonvertebral fracture: Ankle ([2]; 40 μg/day): 0
- patients with at least one incident nonvertebral fracture: Other ([2]; 40 μg/day): 1
- patients with at least one incident nonvertebral fracture: Radius ([2]; 40 μg/day): 0
- patients with at least one incident nonvertebral fracture: Ribs ([2]; 40 μg/day): 0
- patients with at least one incident nonvertebral fracture: Total Patients ([2]; 40 μg/day): 1
- treatment difference in proportion of patients having at least one incident nonvertebral fracture ([2]; placebo, 20 and 40 μg/day, p=0.670): no significant treatment difference
- urinary N-telopeptide and urinary free deoxypyridinoline ([3]; 20-μg and 40-μg doses): Slightly delayed but significant increases
- serum PICP peak concentration above baseline ([3]; 20-μg group): 33.7%
- increase in serum BSAP concentration from baseline ([3]; 20-μg group, Month 12): 28.8%
- serum PICP compared with baseline ([3]; 20-μg group, Month 12): decreased compared with baseline
- urinary NTX percent change from baseline, peak ([3]; 20-μg group, Month 12): approximately 57%
- serum PICP peak concentration above baseline ([3]; 40-μg group): 78.0%
- urinary NTX percent change from baseline, peak ([3]; 40-μg group, Month 6): approximately 155%
- increase in serum BSAP concentration from baseline ([3]; 40-μg group, Month 12): 59.3%
- serum PICP compared with baseline ([3]; 40-μg group, Month 12): slightly decreased compared with baseline
- urinary NTX over baseline ([3]; 40-μg group, Month 12): approximately 118%
- bone marker levels after discontinuation ([3]; closeout visit): only serum PICP levels had returned to baseline by the closeout visit
- patients with a decrease in vertebral BMD at study endpoint ([5]; 20 μg): 7.1%
- increase in whole body BMC compared with the placebo group ([5]; 20 μg group): approximately 0.9%
- Femoral Neck BMD, mean change from baseline to endpoint ([5]; 20 μg/day): 0.01 ± 0.03 g/cm^2
- Femoral Neck BMD, mean percent change from baseline to endpoint ([5]; 20 μg/day): 1.4% and 1.44% and 1.44 ± 3.61%
- Intertrochanter BMD, mean change from baseline to endpoint ([5]; 20 μg/day): 0.01 ± 0.03 g/cm^2
- Intertrochanter BMD, mean percent change from baseline to endpoint ([5]; 20 μg/day): 1.20 ± 3.07%
- Lumbar Spine (L-1 through L-4) BMD, mean change from baseline to endpoint ([5]; 20 μg/day): 0.05 ± 0.04 g/cm^2
- Lumbar Spine (L-1 through L-4) BMD, mean percent change from baseline to endpoint ([5]; 20 μg/day): 5.7% and 5.73% and 5.73 ± 4.46%
- Total Hip BMD, mean change from baseline to endpoint ([5]; 20 μg/day): 0.01 ± 0.02 g/cm^2
- Total Hip BMD, mean percent change from baseline to endpoint ([5]; 20 μg/day): 1.14% and 1.14 ± 2.89%
- Trochanter BMD, mean change from baseline to endpoint ([5]; 20 μg/day): 0.01 ± 0.03 g/cm^2
- Trochanter BMD, mean percent change from baseline to endpoint ([5]; 20 μg/day): 1.25 ± 4.15%
- Ward's Triangle BMD, mean change from baseline to endpoint ([5]; 20 μg/day): 0.01 ± 0.04 g/cm^2
- Ward's Triangle BMD, mean percent change from baseline to endpoint ([5]; 20 μg/day): 2.48 ± 7.20%
- increase in hip (femoral neck) BMC at study endpoint ([5]; 20 μg/day): 1%
- increase in lumbar spine BMC at study endpoint ([5]; 20 μg/day): 7%
- Distal Radius (Forearm) BMD, mean change from baseline to endpoint ([5]; 20 μg/day): −0.00 ± 0.02 g/cm^2
- Distal Radius (Forearm) BMD, mean percent change from baseline to endpoint ([5]; 20 μg/day): −0.47 ± 2.21%
- Ultradistal Radius (Forearm) BMD, mean change from baseline to endpoint ([5]; 20 μg/day): −0.00 ± 0.01 g/cm^2
- Ultradistal Radius (Forearm) BMD, mean percent change from baseline to endpoint ([5]; 20 μg/day): −0.40 ± 3.15%
- Whole body BMD, mean change from baseline to endpoint ([5]; 20 μg/day): 0.01 ± 0.03 g/cm^2
- patients with a decrease in vertebral BMD at study endpoint ([5]; 40 μg): 6.2%
- decrease in distal ⅓ radius (forearm) BMD compared with the placebo group ([5]; 40 μg group): 1.0%
- increase in whole body BMC compared with the placebo group ([5]; 40 μg group): 1.3%
- Femoral Neck BMD, mean change from baseline to endpoint ([5]; 40 μg/day): 0.02 ± 0.04 g/cm^2
- Femoral Neck BMD, mean percent change from baseline to endpoint ([5]; 40 μg/day): 2.9% and 2.85% and 2.85 ± 6.07%
- Intertrochanter BMD, mean change from baseline to endpoint ([5]; 40 μg/day): 0.02 ± 0.04 g/cm^2
- Intertrochanter BMD, mean percent change from baseline to endpoint ([5]; 40 μg/day): 2.32 ± 4.57%
- Lumbar Spine (L-1 through L-4) BMD, mean change from baseline to endpoint ([5]; 40 μg/day): 0.07 ± 0.05 g/cm^2
- Lumbar Spine (L-1 through L-4) BMD, mean percent change from baseline to endpoint ([5]; 40 μg/day): 8.8% and 8.75% and 8.75 ± 6.25%
- Total Hip BMD, mean change from baseline to endpoint ([5]; 40 μg/day): 0.02 ± 0.03 g/cm^2
- Total Hip BMD, mean percent change from baseline to endpoint ([5]; 40 μg/day): 2.33% and 2.33 ± 4.51%
- Trochanter BMD, mean change from baseline to endpoint ([5]; 40 μg/day): 0.01 ± 0.03 g/cm^2
- Trochanter BMD, mean percent change from baseline to endpoint ([5]; 40 μg/day): 1.98 ± 5.16%
- Ward's Triangle BMD, mean change from baseline to endpoint ([5]; 40 μg/day): 0.03 ± 0.05 g/cm^2
- Ward's Triangle BMD, mean percent change from baseline to endpoint ([5]; 40 μg/day): 6.19 ± 10.21%
- increase in hip (femoral neck) BMC at study endpoint ([5]; 40 μg/day): 3%
- increase in lumbar spine BMC at study endpoint ([5]; 40 μg/day): 10%
- Distal Radius (Forearm) BMD, mean change from baseline to endpoint ([5]; 40 μg/day): −0.01 ± 0.02 g/cm^2
- Distal Radius (Forearm) BMD, mean percent change from baseline to endpoint ([5]; 40 μg/day): −0.67 ± 2.36%
- Ultradistal Radius (Forearm) BMD, mean change from baseline to endpoint ([5]; 40 μg/day): 0.00 ± 0.02 g/cm^2
- Ultradistal Radius (Forearm) BMD, mean percent change from baseline to endpoint ([5]; 40 μg/day): 0.54 ± 5.98%
- Whole body BMD, mean change from baseline to endpoint ([5]; 40 μg/day): 0.01 ± 0.03 g/cm^2
- patients with an increase in lumbar spine BMD of 5% or more ([5]; 20-μg group): 54.6%
- lumbar spine BMD increase from baseline by visit ([5]; 20-μg group, Month 3): 2.44%
- lumbar spine BMD increase from baseline by visit ([5]; 20-μg group, Month 6): 4.29
- difference in lumbar spine BMD between treatment group and placebo ([5]; 20-μg group, Month 12): 5.49%
- lumbar spine BMD increase from baseline by visit ([5]; 20-μg group, Month 12): 6.07%
- increase in lumbar spine BMD compared to placebo at endpoint ([5]; 20-μg/day): 5%
- lumbar spine BMD response in hypogonadal vs idiopathic subgroups ([5]; 20 and 40 μg): did not differ significantly
- patients with an increase in lumbar spine BMD of 5% or more ([5]; 40-μg group): 70.5%
- lumbar spine BMD increase from baseline by visit ([5]; 40-μg group, Month 3): 3.87%
- lumbar spine BMD increase from baseline by visit ([5]; 40-μg group, Month 6): 6.33%
- difference in lumbar spine BMD between treatment group and placebo ([5]; 40-μg group, Month 12): 8.83%
- lumbar spine BMD increase from baseline by visit ([5]; 40-μg group, Month 12): 9.41%
- increase in lumbar spine BMD compared to placebo at endpoint ([5]; 40-μg/day): 8%
- distal ⅓ radius (forearm) and ultradistal radius BMD compared with the placebo group ([5]; both 20-μg and 40-μg groups): unchanged
